Reference: EP0655506B1 (priority 1994, dated 1995)
Like-named read-outs stand apart in the source and are kept apart here.

What was measured:
[1] = target: T1, E. coli DNA polymerase I (Klenow fragment) (Escherichia coli, UniProt P00582); settings: cited from earlier work
T1 construct: manganese reduces the discrimination of Klenow fragment against ddATP from 550 to 3.9 fold

[2] = target: T2, E. coli DNA polymerase I mutant Pol I C-K4, R R S A K A I I Y G L I Y G (Escherichia coli, UniProt P00582, F762Y/N761I); experiment: SDS activity gel analysis, incorporation of ddNMP relative to dNMP (Example 2); type: biochemical; settings: renatured enzyme in gel; 1.5 µM 4dNTPs with or without 30 µM ddTTP; 37 °C 4 hr
T2 construct: the large fragment of E. coli DNA polymerase I (Klenow fragment); made in house; crude lysate, renatured in gel
T2 sequence (P00582 324-928 N761I/F762Y): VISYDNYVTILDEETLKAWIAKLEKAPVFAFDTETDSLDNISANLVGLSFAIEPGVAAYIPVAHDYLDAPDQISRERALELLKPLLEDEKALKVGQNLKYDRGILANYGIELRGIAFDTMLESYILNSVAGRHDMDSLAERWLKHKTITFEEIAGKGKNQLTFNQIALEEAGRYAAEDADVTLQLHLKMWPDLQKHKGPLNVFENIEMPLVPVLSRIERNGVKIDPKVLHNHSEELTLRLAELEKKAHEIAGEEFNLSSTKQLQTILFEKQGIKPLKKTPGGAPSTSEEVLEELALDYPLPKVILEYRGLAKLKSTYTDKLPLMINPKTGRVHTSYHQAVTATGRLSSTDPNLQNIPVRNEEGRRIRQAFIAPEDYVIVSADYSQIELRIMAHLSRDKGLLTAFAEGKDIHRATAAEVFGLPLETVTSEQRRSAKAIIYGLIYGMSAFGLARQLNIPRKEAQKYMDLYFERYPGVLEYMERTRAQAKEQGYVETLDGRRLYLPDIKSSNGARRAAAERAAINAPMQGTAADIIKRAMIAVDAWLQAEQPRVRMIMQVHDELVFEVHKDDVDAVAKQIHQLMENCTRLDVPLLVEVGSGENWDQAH
Experimental: (§1) Mutant DNA polymerases are screened for their ability to incorporate dideoxynucleotides by SDS activity gel analysis. The procedure is a modification of that described by Spanos and Hübscher 91 Methods in Enzymology 263, 1983 and Karawya et al. 135 Analytical Biochemistry 318, 1983. Briefly, 10 ml of cells are induced for 4 to 6 hours and then pelleted. The cell pellet is resuspended in 0.3 ml 25 mM Tris HCl, pH 7.0, 5 mM EDTA. 20 µl of the resuspended cells are mixed with 40 µl of a solution of 1% SDS (sodium dodecyl sulfate), 2% mercaptoethanol, 30 % glycerol, 0.04% bromphenol blue, and 100 mM TrisHCl, pH 6.8. The mixtures are incubated at 37 °C for 5 min, and then 20 µl aliquots are loaded in duplicate onto two SDS polyacrylamide gels. The SDS polyacrylamide gels consist of a resolving gel that contains 8% polyacrylamide, 0.27% bisacrylamide, 190 mM TrisHCl, pH 8.8, 0.05% SDS, and 25 µg/ml denatured salmon sperm DNA, and a stacking gel that consists of 5% polyacrylamide, 0.17% bisacrylamide, 150 mM TrisHCl, pH 6.8, and 0.1% SDS. The two gels are electrophoresed at 100 V for 13 hr at a constant temperature of 13 °C in an electrophoresis buffer consisting of 190 mM TrisHCl and pH 8.8, 0.05% SDS.
(§2) After electrophoresis, the gels are washed over 8 hr in 4 changes of 500 ml each of Renaturation Buffer (50 mM Tris.HCl, pH 7.5, 5 mM magnesium acetate, 1 mM dithiothreitol, 40 mM KCI, 400 µg/ml bovine serum albumin, 16% glycerol and 0.95 mM EDTA) at 4 °C.
(§3) The renatured proteins are assayed for DNA polymerase activity by incubating each of the two gels in 6 ml of Renaturation Buffer, 1.5 µM 4dNTPs, 4 µl of [a-^32P]dATP (800 Ci/mmol, 10 mCi/ml), and 80 µg of purified thioredoxin. One of the mixtures also contains 30 µM ddTTP (a 20-fold molar excess over dTTP). The mixtures are incubated for 4 hr at 37 °C (70 °C for 2 hr for thermophilic DNA polymerases).
(§4) After incubation the gels are washed for 8 hr against four changes of 5% trichloracetic acid and 1% sodium pyrophosphate. The gels are then dried and autoradiographed.
(§5) To determine whether a mutant DNA polymerase is discriminating more or less against ddTTP, the intensities of the radioactive bands are compared on the two gels that were incubated in the presence and absence of ddTTP, and the ratio of the signal in the two bands for the unmodified DNA polymerase is compared with the ratio of the signal in the two bands for each of the mutants.

[3] = target: T3, Taq DNA polymerase mutant Taq C-Q2, R R A A K T F I Y G F L Y G (Thermus aquaticus, UniProt P19821, F667Y/I665F/N666I/V669F); experiment: as above; type: biochemical; settings: renatured enzyme in gel; 1.5 µM 4dNTPs with or without 30 µM ddTTP; 70 °C 2 hr
T3 construct: the large fragment of Taq DNA polymerase (KlenTaq or _Taq DNA polymerase); made in house; crude lysate, renatured in gel
T3 sequence (P19821 236-832 I665F/N666I/F667Y/V669F): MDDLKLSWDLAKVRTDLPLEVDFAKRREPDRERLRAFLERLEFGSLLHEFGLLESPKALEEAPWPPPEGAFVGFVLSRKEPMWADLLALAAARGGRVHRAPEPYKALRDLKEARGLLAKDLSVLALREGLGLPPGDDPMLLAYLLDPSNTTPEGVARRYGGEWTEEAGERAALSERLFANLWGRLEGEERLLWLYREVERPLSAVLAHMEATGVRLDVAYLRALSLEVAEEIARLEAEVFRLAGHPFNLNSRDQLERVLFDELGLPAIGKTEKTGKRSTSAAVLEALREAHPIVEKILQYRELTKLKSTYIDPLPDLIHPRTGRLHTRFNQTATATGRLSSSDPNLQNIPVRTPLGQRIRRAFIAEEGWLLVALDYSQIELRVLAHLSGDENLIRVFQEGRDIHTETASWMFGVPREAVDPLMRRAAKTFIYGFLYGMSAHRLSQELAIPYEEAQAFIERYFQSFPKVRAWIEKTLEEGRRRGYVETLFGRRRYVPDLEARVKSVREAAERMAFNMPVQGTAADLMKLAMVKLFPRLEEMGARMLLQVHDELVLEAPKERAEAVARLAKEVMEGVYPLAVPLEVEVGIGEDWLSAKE
Experimental: as §1, §2, §3, §4, §5

[4] = target: T4, Taq DNA polymerase mutant Taq C-Q3, R R A A K T I I Y G V L Y G (Thermus aquaticus, UniProt P19821, F667Y/N666I); experiment: as above; type: biochemical; settings: renatured enzyme in gel; 1.5 µM 4dNTPs with or without 30 µM ddTTP; 70 °C 2 hr
T4 construct: the large fragment of Taq DNA polymerase (KlenTaq or _Taq DNA polymerase); made in house; crude lysate, renatured in gel
T4 sequence (P19821 236-832 N666I/F667Y): as the sequence (P19821 236-832 I665F/N666I/F667Y/V669F) above, with F430I, F434V counted along it
Experimental: as §1, §2, §3, §4, §5

[5] = target: T5, Taq DNA polymerase mutant Tqa C-Q5 (F667Y), R R A A K T I N Y G V L Y G (Thermus aquaticus, UniProt P19821, F667Y); experiment: as above; type: biochemical; settings: renatured enzyme in gel; 1.5 µM 4dNTPs with or without 30 µM ddTTP; 70 °C 2 hr
T5 construct: the large fragment of Taq DNA polymerase (KlenTaq or _Taq DNA polymerase); made in house; crude lysate, renatured in gel
T5 sequence (P19821 236-832 F667Y): as the sequence (P19821 236-832 I665F/N666I/F667Y/V669F) above, with F430I, I431N, F434V counted along it
Experimental: as §1, §2, §3, §4, §5

[6] = target: T6, Taq DNA polymerase, wild type (Taq WT), R R A A K T I N F G V L Y G (Thermus aquaticus, UniProt P19821); experiment: as above; type: biochemical; settings: renatured enzyme in gel; 1.5 µM 4dNTPs with or without 30 µM ddTTP; 70 °C 2 hr
T6 construct: the large fragment of Taq DNA polymerase (KlenTaq or _Taq DNA polymerase); made in house; crude lysate, renatured in gel
T6 sequence (P19821 236-832 limits assumed): as the sequence (P19821 236-832 I665F/N666I/F667Y/V669F) above, with F430I, I431N, Y432F, F434V counted along it
Experimental: as §1, §2, §3, §4, §5

[7] = target: T7, E. coli DNA polymerase I mutant Pol I C-K2, R R S A K T F I Y G L I Y G (Escherichia coli, UniProt P00582, A759T/F762Y/I760F/N761I); experiment: as above; type: biochemical; settings: renatured enzyme in gel; 1.5 µM 4dNTPs with or without 30 µM ddTTP; 37 °C 4 hr
T7 construct: the large fragment of E. coli DNA polymerase I (Klenow fragment); made in house; crude lysate, renatured in gel
T7 sequence (P00582 324-928 A759T/I760F/N761I/F762Y): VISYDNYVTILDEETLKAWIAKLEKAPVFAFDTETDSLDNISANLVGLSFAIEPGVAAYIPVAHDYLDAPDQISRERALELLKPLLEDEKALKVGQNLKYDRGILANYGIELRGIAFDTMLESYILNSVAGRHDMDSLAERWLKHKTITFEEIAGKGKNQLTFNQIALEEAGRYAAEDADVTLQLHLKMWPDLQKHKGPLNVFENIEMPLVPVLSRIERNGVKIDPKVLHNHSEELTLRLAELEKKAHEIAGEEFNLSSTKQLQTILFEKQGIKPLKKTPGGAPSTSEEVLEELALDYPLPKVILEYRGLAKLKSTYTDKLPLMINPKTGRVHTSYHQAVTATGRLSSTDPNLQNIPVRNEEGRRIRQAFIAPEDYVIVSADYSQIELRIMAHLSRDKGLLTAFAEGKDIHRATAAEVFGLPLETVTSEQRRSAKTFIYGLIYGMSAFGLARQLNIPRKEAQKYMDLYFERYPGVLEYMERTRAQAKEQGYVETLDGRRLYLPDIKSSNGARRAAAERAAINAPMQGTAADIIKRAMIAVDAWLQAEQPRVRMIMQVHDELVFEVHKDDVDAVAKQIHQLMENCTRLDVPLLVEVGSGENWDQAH
Experimental: as §1, §2, §3, §4, §5

[8] = target: T8, E. coli DNA polymerase I mutant Pol I C-K5, R R S A K A I I F G L I Y G (Escherichia coli, UniProt P00582, N761I); experiment: as above; type: biochemical; settings: renatured enzyme in gel; 1.5 µM 4dNTPs with or without 30 µM ddTTP; 37 °C 4 hr
T8 construct: the large fragment of E. coli DNA polymerase I (Klenow fragment); made in house; crude lysate, renatured in gel
T8 sequence (P00582 324-928 N761I): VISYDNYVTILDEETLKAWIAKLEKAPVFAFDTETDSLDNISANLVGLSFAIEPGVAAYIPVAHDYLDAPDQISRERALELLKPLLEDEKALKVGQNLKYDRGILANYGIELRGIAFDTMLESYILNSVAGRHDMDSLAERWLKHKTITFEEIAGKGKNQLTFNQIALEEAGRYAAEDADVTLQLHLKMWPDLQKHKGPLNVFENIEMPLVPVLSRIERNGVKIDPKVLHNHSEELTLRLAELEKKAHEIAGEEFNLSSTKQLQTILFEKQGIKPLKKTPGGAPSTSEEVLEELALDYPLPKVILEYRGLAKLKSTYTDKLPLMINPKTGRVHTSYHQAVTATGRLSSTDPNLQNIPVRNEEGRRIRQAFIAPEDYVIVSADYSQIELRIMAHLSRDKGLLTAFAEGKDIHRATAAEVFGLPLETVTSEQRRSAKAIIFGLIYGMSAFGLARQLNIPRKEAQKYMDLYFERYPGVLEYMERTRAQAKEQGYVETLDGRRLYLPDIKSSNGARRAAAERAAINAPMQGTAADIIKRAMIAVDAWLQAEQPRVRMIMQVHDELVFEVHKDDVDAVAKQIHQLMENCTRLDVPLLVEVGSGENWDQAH
Experimental: as §1, §2, §3, §4, §5

[9] = target: T9, Taq DNA polymerase mutant Taq C-Q1, R D N A K T I N F G V L Y G (Thermus aquaticus, UniProt P19821, A661N/R660D); experiment: as above; type: biochemical; settings: renatured enzyme in gel; 1.5 µM 4dNTPs with or without 30 µM ddTTP; 70 °C 2 hr
T9 construct: the large fragment of Taq DNA polymerase (KlenTaq or _Taq DNA polymerase); made in house; crude lysate, renatured in gel
T9 sequence (P19821 236-832 R660D/A661N): as the sequence (P19821 236-832 I665F/N666I/F667Y/V669F) above, with R425D, A426N, F430I, I431N, Y432F, F434V counted along it
Experimental: as §1, §2, §3, §4, §5

[10] = target: T10, E. coli DNA polymerase I mutant Pol I C-K1, R D N A K T F I Y G F L Y G (Escherichia coli, UniProt P00582, A759T/F762Y/I760F/I765L/L764F/N761I/R755D/S756N); experiment: as above; type: biochemical; settings: renatured enzyme in gel; 1.5 µM 4dNTPs with or without 30 µM ddTTP; 37 °C 4 hr
T10 construct: the large fragment of E. coli DNA polymerase I (Klenow fragment); made in house; crude lysate, renatured in gel
T10 sequence (P00582 324-928 R755D/S756N/A759T/I760F/N761I/F762Y/L764F/I765L): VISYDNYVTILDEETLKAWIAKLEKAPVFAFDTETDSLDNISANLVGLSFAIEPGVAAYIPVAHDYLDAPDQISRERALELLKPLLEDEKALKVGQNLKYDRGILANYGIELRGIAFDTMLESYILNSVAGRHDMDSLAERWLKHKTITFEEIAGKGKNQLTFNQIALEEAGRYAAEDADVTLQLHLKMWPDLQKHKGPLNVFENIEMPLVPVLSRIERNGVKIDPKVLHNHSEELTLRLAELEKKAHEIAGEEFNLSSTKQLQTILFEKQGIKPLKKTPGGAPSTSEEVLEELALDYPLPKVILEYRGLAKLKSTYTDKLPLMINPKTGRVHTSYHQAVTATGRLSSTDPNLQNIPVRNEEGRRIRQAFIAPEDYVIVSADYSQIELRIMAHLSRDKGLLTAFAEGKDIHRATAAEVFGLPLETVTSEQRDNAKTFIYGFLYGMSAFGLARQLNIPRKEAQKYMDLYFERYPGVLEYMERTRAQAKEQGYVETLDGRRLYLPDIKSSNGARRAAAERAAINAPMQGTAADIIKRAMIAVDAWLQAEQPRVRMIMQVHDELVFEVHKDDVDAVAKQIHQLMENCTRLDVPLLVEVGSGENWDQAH
Experimental: as §1, §2, §3, §4, §5

[11] = target: T11, E. coli DNA polymerase I, wild type (Pol I WT), R R S A K A I N F G L I Y G (Escherichia coli, UniProt P00582); experiment: as above; type: biochemical
T11 construct: the large fragment of E. coli DNA polymerase I (Klenow fragment); made in house; crude lysate, renatured in gel
T11 sequence (P00582 324-928): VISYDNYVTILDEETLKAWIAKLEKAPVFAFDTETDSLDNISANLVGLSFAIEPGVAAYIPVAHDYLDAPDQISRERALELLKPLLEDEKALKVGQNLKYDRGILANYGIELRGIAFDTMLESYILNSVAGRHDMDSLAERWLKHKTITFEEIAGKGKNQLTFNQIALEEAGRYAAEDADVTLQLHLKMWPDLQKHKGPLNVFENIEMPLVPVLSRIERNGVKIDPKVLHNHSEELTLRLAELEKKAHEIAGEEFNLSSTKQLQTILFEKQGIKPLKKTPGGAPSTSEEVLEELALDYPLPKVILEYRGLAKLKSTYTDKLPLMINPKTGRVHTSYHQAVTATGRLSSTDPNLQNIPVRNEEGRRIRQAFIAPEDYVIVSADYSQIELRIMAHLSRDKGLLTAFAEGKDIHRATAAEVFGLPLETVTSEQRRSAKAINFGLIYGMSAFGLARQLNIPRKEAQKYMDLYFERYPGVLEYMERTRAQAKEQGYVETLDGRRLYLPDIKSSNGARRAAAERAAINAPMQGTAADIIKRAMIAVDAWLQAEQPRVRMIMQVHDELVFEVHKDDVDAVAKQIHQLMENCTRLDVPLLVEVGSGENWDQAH
Experimental: as §1, §2, §3, §4, §5

[12] = target: T12, Taq DNA polymerase mutant Taq C-Q4, R R A A K T I I F G V L Y G (Thermus aquaticus, UniProt P19821, N666I); experiment: as above; type: biochemical; settings: renatured enzyme in gel; 1.5 µM 4dNTPs with or without 30 µM ddTTP; 70 °C 2 hr
T12 construct: the large fragment of Taq DNA polymerase (KlenTaq or _Taq DNA polymerase); made in house; crude lysate, renatured in gel
T12 sequence (P19821 236-832 N666I): as the sequence (P19821 236-832 I665F/N666I/F667Y/V669F) above, with F430I, Y432F, F434V counted along it
Experimental: as §1, §2, §3, §4, §5

T1 sequence (P00582 324-928): as the sequence (P00582 324-928) above

SMILES | discrimination against ddATP ([1]; in the presence of manganese) | discrimination against ddATP ([1]; magnesium) | ddNTP Discrimination [2] | ddNTP Discrimination [3] | ddNTP Discrimination [4] | ddNTP Discrimination [5] | ddNTP Discrimination [6] | ddNTP Discrimination [7] | ddNTP Discrimination [8] | ddNTP Discrimination [9] | ddNTP Discrimination [10] | intensity of the bands in the presence versus the absence of ddTTP ([11]; 30 µM ddTTP (20-fold molar excess over dTTP), 1.5 µM 4dNTPs, within a factor of two) | ddNTP Discrimination ([11]; renatured enzyme in gel, 1.5 µM 4dNTPs with or without 30 µM ddTTP, 37 °C 4 hr) | ddNTP Discrimination [12]
Nc1ncnc2c1ncn2[C@H]1CC[C@@H](COP(=O)(O)OP(=O)(O)OP(=O)(O)O)O1 [ddATP] | 3.9 fold | 550 fold |  |  |  |  |  |  |  |  |  |  |  | 
Cc1cn([C@H]2CC[C@@H](COP(=O)(O)OP(=O)(O)OP(=O)(O)O)O2)c(=O)[nH]c1=O [ddTTP] |  |  | Low | Low | Low | Low | High | Low | High | High | Low | approximately the same intensity | High | High
